Data as given in US11446282B2, “Methods of treating mixed dyslipidemia and hypertriglycertdemia” (Kowa Company, Ltd., priority 2017, dated 2022).

Assays:
[1] = tested on: European patients; experiment: Study K-877-201, Phase 2 dose-finding study conducted in Europe; assay type: in vivo, human
Protocol: In previous clinical trials, pemafibrate has been administered at doses ranging from 0.1 mg to 1.6 mg per day in healthy adults. Doses up to 0.4 mg per day have been administered in patients with dyslipidemia. […] Increases in LDL-C, both by beta quantification and calculation with the Friedewald equation, were also observed. Based on analysis of efficacy variables, pemafibrate appeared to have a lowering effect on Apo C3 that led to the conversion of VLDL particles to LDL particles, increasing the fraction of larger LDL particles, and reducing TG levels. Similarly, the reduction of Apo C3 led to increased removal of remnant-like particles and lowering of Apo B48. […] The observed increases in Apo A1 and HDL-C resulted from both increased production of Apo A1 in the liver and increased turnover of TG-rich lipoproteins, both of which were associated with a decreased CHD risk.

[2] = tested on: major drug metabolizing enzymes in the liver; experiment: Inhibition of major drug metabolizing enzymes in the liver; assay type: in vitro ADME
[3] = tested on: dyslipidemic patients with statin; experiment: Example 4 pooled analysis: lipoprotein subclasses by HPLC, with statin, by eGFR; assay type: in vivo, human; settings: for Small HDL-C % Change from baseline to week 12 / Small LDL-C % Change from baseline to week 12 / Very small HDL-C % Change from baseline to week 12 / Very small LDL-C % Change from baseline to week 12: LS mean
Protocol: The present study analyzed data combined from 6 randomized double-blind placebo-controlled studies that were conducted in Japan and continued for 12 weeks unless otherwise noted: a phase 2 study in 224 patients with a history of documented dyslipidemia and plasma TG of 200 mg/dL (2.26 mmol/L) or higher, randomized to placebo, pemafibrate 0.05, 0.1, 0.2, 0.4 mg/day, or fenofibrate 100 mg/day; a phase 3 study in 526 patients with dyslipidemia, high TG levels, and low HDL-C levels, randomized to placebo, pemafibrate 0.1, 0.2, or 0.4 mg/day, or fenofibrate 100 or 200 mg/day; a study in 188 patients with dyslipidemia, randomized to pitavastatin in combination with pemafibrate 0.1, 0.2, or 0.4 mg/day; a 24-week study in 423 patients with dyslipidemia, randomized to pemafibrate 0.2 mg/day (fixed dose) or 0.2 [0.4] mg/day (conditional up-titration) with any statin; a 24-week phase 3 study in 166 patients with type 2 diabetes and hypertriglyceridemia, randomized to placebo or pemafibrate 0.2 or 0.4 mg/day; and a study in 27 patients with hypertriglyceridemia and insulin resistance, randomized to pemafibrate 0.4 mg/day or placebo. All studies were approved by the Institutional Review Board for each study institution and were conducted in accordance with the Declaration of Helsinki and under the guidelines of Good Clinical Practice.
In this study, we evaluated the efficacy and safety of pemafibrate at doses of 0.1 mg/day, 0.2 mg/day, and 0.4 mg/day, with and without statin. The primary efficacy endpoint was percent change in TG from baseline to 12 weeks. The secondary efficacy endpoints were also assessed from baseline to 12 weeks: percent change in HDL-C, LDL-C, non-HDL-C, TC, RemL-C, Apo AI, Apo AII, Apo B, Apo B48, Apo CII, Apo CIII, Apo CIII/Apo CII, and Apo E; percent change in HPLC findings for CM-C, VLDL-C, cholesterol content in 4 subclasses of LDL (large, medium, small, and very small LDLs), and cholesterol content for 5 subclasses of HDL (very large, large, medium, small, and very small HDLs); and changes in fibrinogen and FGF21. The primary safety endpoints were the incidence of adverse events and adverse drug reactions. Secondary safety endpoints were percentage of values above the upper limit of normal range for AST, ALT, sCr and CK, and change in sCr eGFR, CK, AST, ALT, gamma-glutamyl transferase (γ-GT), alkaline phosphatase (ALP), and total bilirubin.
Patients with renal dysfunction were defined as those with baseline eGFR<60 mL/min/1.73 m^2. Analysis was stratified by the presence or absence of renal dysfunction in the concomitant statin group, and efficacy and safety of pemafibrate were evaluated. In efficacy and safety evaluations excluding AEs, ADRs, and cutoff values for AST, ALT, sCr, and CK, findings were combined for pemafibrate subgroups receiving doses of 0.1 mg/day, 0.2 mg/day, and 0.4 mg/day.
For each lipid parameter, gel filtration HPLC was performed at Skylight Biotech, Inc. Other measurements were performed at LSI Medience Corporation. The FAS was used for analyzing efficacy parameters of effects on lipids, fibrinogen, and FGF21. The safety analysis set was used for safety parameters and included all patients who received at least one dose of the study drug. For lipid parameters, fibrinogen, and FGF21, LS means (95% confidence interval) were calculated at Week 12 (LOCF) using analysis of covariance (ANCOVA) with baseline values as the co-variable within each category. For safety parameters, LS means (95% confidence interval) were calculated at Week 12 using ANCOVA with baseline values as the co-variable within each category. SAS version 9.2 was used for analyses.

[4] = baseline to Week 12, last observation carried forward
[5] = Baseline eGFR < 60 mL/min/1.73 m^2, 0.1-0.4 mg/day
[6] = Baseline eGFR ≥ 60 mL/min/1.73 m^2, 0.1-0.4 mg/day

inhibitory effects on major drug metabolizing enzymes in the liver [2]: minimal
Structure (SMILES): CC[C@@H](Oc1cccc(CN(CCCOc2ccc(OC)cc2)c2nc3ccccc3o2)c1)C(=O)O [Pemafibrate, (2R)-2-[3-({1,3-benzoxazol-2-yl[3-(4-methoxyphenoxy)propyl]amino}methyl)phenoxy]butanoic acid]
placebo-adjusted TG reduction ([1]; 0.2 mg twice daily): 54.4%
Apo A1 change [1, 4]: increases
Apo A2 change [1, 4]: increases
Apo B48 change [1, 4]: decreases
Apo C2 change [1, 4]: decreases
Apo C3 change [1, 4]: decreases
FGF21 change [1, 4]: increases
HDL-C change [1, 4]: increases
VLDL-C change [1, 4]: decreases
LDL-C change ([1]; by beta quantification and Friedewald equation): Increases
non-HDL-C change ([1]; in vivo): decrease
total Apo B levels change ([1]; in vivo): no changes
efficacy in TG reduction and HDL-C elevation ([1]; twice daily compared to once daily): Greater efficacy
Small HDL-C Week 12 (LOCF) [3, 5]: 0.484 mmol/L
Small LDL-C Week 12 (LOCF) [3, 5]: 0.577 mmol/L
Very small HDL-C Week 12 (LOCF) [3, 5]: 0.208 mmol/L
Very small LDL-C Week 12 (LOCF) [3, 5]: 0.229 mmol/L
Small HDL-C % Change from baseline to week 12 [3, 5]: 34.9%
Small LDL-C % Change from baseline to week 12 [3, 5]: −7.8%
Very small HDL-C % Change from baseline to week 12 [3, 5]: 25.2%
Very small LDL-C % Change from baseline to week 12 [3, 5]: −14.6%
Small HDL-C Week 12 (LOCF) [3, 6]: 0.470 mmol/L
Small LDL-C Week 12 (LOCF) [3, 6]: 0.576 mmol/L
Very small HDL-C Week 12 (LOCF) [3, 6]: 0.204 mmol/L
Very small LDL-C Week 12 (LOCF) [3, 6]: 0.231 mmol/L
Small HDL-C % Change from baseline to week 12 [3, 6]: 26.7%
Small LDL-C % Change from baseline to week 12 [3, 6]: −6.0%
Very small HDL-C % Change from baseline to week 12 [3, 6]: 19.4%
Very small LDL-C % Change from baseline to week 12 [3, 6]: −12.5%
small and very small LDL-C and HDL particle sizes (observation) ([3]; lower eGFR group): improvements
